Data reported in patent US9895390B2, “Methods and assays for combination treatment of cancer” (CHILDREN'S MEDICAL CENTER CORPORATION, priority 2012, dated 2018).
Where “and” joins values, the source holds several entries; their conditions need not be identical. Identical values can stand only once. Entries after “also recorded” stand apart in the source; their conditions may differ.

Legend:
human NSCLC lines [1] = experiment: Cytotox assays: chemotherapy dose response curves with or without EZH2 inhibitor, 4 days; type: cell-based
Method: Cell lines were dissociated, counted and plated at 5000 cells per well in flat bottom opaque tissue culture treated 96 well plates (CytoOne). Edge wells were filled with PBS. The following day, 2× drug diluted in media was added to each well such that the well then contained 100 ul media with 1× drug concentration. After 4 days, Cell Titer Glo™ (Promega) was added and luminescence was read on a BioTec plate reader to determine relative cell number in each well. Data were averaged for triplicate or quadruplicate technical replicates, normalized to the untreated wells and input into GraphPad Prism software to extrapolate IC50.
Cell lines were dissociated, counted and plated at 5000 cells per well in flat bottom opaque tissue culture treated 96 well plates (CytoOne). Edge wells were filled with PBS. The following day, 2× drug diluted in media was added to each well such that the well then contained 100 ul media with 1× drug concentration at the following doses: etoposide; 0, 0.1, 1, 3, 5, 7, 10, 50, 100, 500 μM, cisplatin; 0, 0.1, 1, 5, 10, 30, 70, 100, 500 μM, or doxorubicin; 0, 0.01, 0.1, 0.5, 1, 3, 5, 7, 10, 50 μM. […] Data were averaged for triplicate or quadruplicate technical replicates and normalized to the untreated wells. Results from three or four independent biological replicate experiments were input into […] PRISM™ software to extrapolate IC50 and s.e.m. of IC50 for a given cell line.

H460 = experiment: 7AAD cell cycle flow cytometry, stably transduced lines; type: cell-based, human; details: etoposide treated H460 shBrg1 and EGFR over-expression
Method: (§1) Cell lines were plated at 1.5×10^6 cells per 10 cm plate and treated with drug for 4 days. Cells were then dissociated, fixed with 100% ice cold Ethanol for at least 2 hours, incubated for 30 minutes with 1 mg/mL RNase A and resuspended in 20 μg/mL 7AAD. 30,000 events were collected on the BD Facscalibur™ and analyzed with the ModFit LT™ software. In cases where etoposide treated cells had such abnormal ploidy that ModFit LT™ was unable to correctly model the cell cycle, the data was analyzed manually on FlowJo™ software by setting the gates on the etoposide sample and copying them to the etoposide+DZNep and etoposide shEZH2 samples.
(§2) For 7AAD-cell cycle analysis, cell lines were plated at 1.5×10^6 cells per 10 cm plate and treated with drug for 4 days. Cells were then dissociated, fixed with 100% ice cold Ethanol for at least 2 hours, incubated for 30 minutes with 1 mg/mL DNase-free RNase A (Thermo) and resuspended in 20 μg/mL 7-Aminoactinomycin D (7AAD; Invitrogen). 30,000 events were collected on the BD FORTESSA™ and analyzed with the MODFIT LT™ software. Results from three to four independent biological replicate experiments were averaged for each cell line.

HCC15 = experiment: as above; type: cell-based, human
Method: as §1, §2

[2] = tested on: sensitized and protected NSCLC cell lines; experiment: 7AAD cell cycle flow cytometry; type: cell-based, human
Method: as §1, §2

human NSCLC lines [3] = experiment: Growth rates over 10 day time-course (Cell Titer Glo), 12 cell lines; type: cell-based; details: 1 μM DZNep, 10 day time-course
Method: FIG. 2A depicts a Western Blot for EZH2 and H3K27me3 performed on whole cell extracts 4 days after indicated treatments, β-actin shown as a loading control. FIG. 2B depicts a graph of the growth rates of matched shGFP and shGFP cells treated with 1 μM DZNep and assayed by Cell Titer Glo at days 3, 5, 7, and 10 post plating at equal densities. Average luminescence ±s.e.m. for 3 replicate wells is shown based on when each shGFP cell line reached logarithmic growth, * indicates p<0.03. FIG. 2C depicts a graph of the response to Etoposide. Cell lines were plated at equal densities and treated a range of etoposide doses with or without 1 μM DZNep. On the 4th day, cell viability was measured using Cell Titer Glo and the percent survival at each dose of etoposide was calculated. Dose response curves were generated for the no DZNep and DZNep treated cells using the GraphPad prism software and IC50s were extrapolated. The fold change±s.e.m. of etoposide IC50 in response to DZNep is plotted, n=4 biological replicates, * indicates p<0.05. Cell lines with mutations in Brg1, EGFR and B-Raf are indicated.

[4] = tested on: BRG1 mutant and BRG1 wild-type cell lines; experiment: Anaphase bridge analysis; type: cell-based, human
Method: To quantify anaphase bridges, cells were grown on 4-well cultures slides (Lab Tek II). Adherent cells were fixed with 4% paraformaldehyde for 20 min, washed and stained with Vectashield™ with 4′,6-diamidino-2-phenylindole (DAPI; Vector Labs). Images were taken of each anaphase structure, and the number of anaphases with bridges over the total number of anaphases (between 11 and 34 total anaphases per well of a 4-well chamber slide) was recorded for each of three or more independent biological replicate experiments.

[5] = tested on: p57, p21, p27, Brg1 and EGFR expression; experiment: Quantitative RT-PCR in treated cell lines; type: cell-based, human; details: Sw1573, Calu6, H23, H460 and PC9; 1 μM DZNep, 4 days
Method: RNA from treated cell lines was extracted from using Trizol. Equal amounts of RNA were incubated with DNAse I before cDNA was made using the SuperScript III™ kit (Invitrogen). Relative gene expression was assayed with Sybr green on the StepOnePlus™ Real-Time PCR System (Applied Biosystems). Relative expression was calculated by Gene of Interest (Ctreference-Ctexprimental)-CYPA(Ctreference-Ctexperimental) and graphed on the log 2 scale. For all experiments, the reference sample was a matched untreated or control transduced cell line. Primer sequences:
RNA from treated cell lines was extracted using Absolutely RNA™ kits (Agilent) and cDNA was made using the SuperScript III™ kit (Invitrogen). Relative gene expression was assayed with Sybr green on the StepOnePlus™ Real-Time PCR System (Applied Biosystems). Relative expression was calculated by Gene of Interest(Ctreference-Ctexperimental)-CYPA(Ctreference-Cteexperimental) and graphed on the log 2 scale. For all experiments, the reference sample was a matched untreated or control transduced cell line.

Nc1nccc2c1ncn2[C@@H]1C=C(CO)[C@@H](O)[C@H]1O [DZNep, 3-Deazaneplanocin A]
cell lines more sensitive to etoposide in the presence of DZNep (human NSCLC lines [1]; 1 μM DZNep, 4 days, panel of 29 (Example 1) or 26 (Example 2) lines): 16 of the 29 and 14 of the 26 | sensitivity to etoposide in the presence of DZNep, protected lines (human NSCLC lines [1]; H23, H460 and H441, 1 μM DZNep, 4 days): less sensitive | sensitivity to etoposide in the presence of DZNep, sensitized lines (human NSCLC lines [1]; H157, HCC15, PC9, H157, A549, PC9, 1 μM DZNep, 4 days): more sensitive | pattern of sensitized and protected cells with cisplatin combined with DZNep (human NSCLC lines [1]; cis-platinum combined with DZNep): not observed | S phase change in response to DZNep (H460): enriched for S phase | S phase change in response to DZNep (HCC15; etoposide treated HCC15 Brg1 over-expression): dramatically smaller accumulation in S phase; also recorded: did not accumulate in S phase | S phase change in response to DZNep (HCC15; etoposide treated HCC15 shEGFR): decrease in S phase; also recorded: no additional increase in S phase | average fewer cells in S phase vs etoposide alone ([2]; protected cell lines, 10 μM etoposide + 1 μM DZNep, 4 days): 10% | average fewer cells in S phase vs etoposide alone ([2]; protected lines, 5 μM etoposide, DZNep 1 μM or shEZH2, 4 days): 14% | average more cells in S phase in response to DZNep ([2]; sensitized cell lines, 10 μM etoposide + 1 μM DZNep, 4 days): 20% | average more cells in S phase ([2]; sensitized lines, 5 μM etoposide, DZNep 1 μM or shEZH2, 4 days): 14% | cell lines with reduced growth rates (human NSCLC lines [3]): 11 out of 12 | anaphase bridging when challenged with DZNep ([4]; BRG1 mutant cell lines): increased anaphase bridging | anaphase bridging when challenged with DZNep ([4]; BRG1 wild-type lines): significant decrease | anaphase bridging (TopoII dysfunction) in response to DZNep ([4]; HCC15 control line): increase in TopoII dysfunction | BRG1 transcript [5]: reproducibly increased
